Source: PubChem BioAssay AID256 (DTP/NCI, 2004)
Values joined by “and” are separate entries in the source; they are usually repeats but may differ in a detail not shown here. Equal entries are not always repeated. Toxic doses and inconclusive results are not listed.

Test system: CD2F1 mice, L1210 leukemia ip, survival T/C
Assay: NCI In Vivo Anticancer Drug Screen. Data for tumor model L1210 Leukemia (intraperitoneal) in CD2F1 (CDF1) mice
Details: higher = longer survival
In short: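 Ratio T/C, where T is the treated-group value and C the vehicle-dosed control value, from mice implanted with a transplantable tumor.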

[1] = endpoint: mean survival time, dose: 50.0 mg/kg/injection, schedule: Q01DX009 (ip), vehicle: saline with Tween-80
[2] = endpoint: mean survival time, dose: 100.0 mg/kg/injection, schedule: Q01DX009 (ip), vehicle: saline with Tween-80
[3] = endpoint: mean survival time, dose: 200.0 mg/kg/injection, schedule: Q01DX009 (ip), vehicle: saline with Tween-80
[4] = endpoint: mean survival time, dose: 100.0 mg/kg/injection, schedule: Q04DX003 (ip), vehicle: saline with Tween-80
[5] = endpoint: mean survival time, dose: 200.0 mg/kg/injection, schedule: Q04DX003 (ip), vehicle: saline with Tween-80
[6] = endpoint: mean survival time, dose: 400.0 mg/kg/injection, schedule: Q04DX003 (ip), vehicle: saline with Tween-80
[7] = endpoint: mean survival time, dose: 50.0 mg/kg/injection, schedule: Q04DX003 (ip), vehicle: saline with Tween-80
[8] = endpoint: mean survival time, dose: 50.0 mg/kg/injection, schedule: Q01DX001 (ip), vehicle: saline
[9] = endpoint: mean survival time, dose: 100.0 mg/kg/injection, schedule: Q01DX001 (ip), vehicle: saline
[10] = endpoint: mean survival time, dose: 200.0 mg/kg/injection, schedule: Q01DX001 (ip), vehicle: saline
[11] = endpoint: mean survival time, dose: 400.0 mg/kg/injection, schedule: Q01DX001 (ip), vehicle: saline
[12] = endpoint: mean survival time, dose: 50.0 mg/kg/injection, schedule: Q01DX009 (ip), vehicle: saline
[13] = endpoint: mean survival time, dose: 100.0 mg/kg/injection, schedule: Q01DX009 (ip), vehicle: saline
[14] = endpoint: mean survival time, dose: 200.0 mg/kg/injection, schedule: Q01DX009 (ip), vehicle: saline

For `O=C(Nc1ccccc1C(F)(F)F)n1c(=S)[nH]c2cc([N+](=O)[O-])ccc21`, the T/C [1] was 90 % of control, the T/C [2] was 105 % of control and the T/C [3] was 94 % of control.
For `COc1cccc(C2=CCCCCC2)c1OC`, the T/C [4] was 98 % of control, the T/C [5] was 101 % of control and the T/C [6] was 102 % of control.
`c1ccc(CCc2ccccc2)cc1` was tested, and the T/C (endpoint: mean survival time, dose: 25.0 mg/kg/injection, schedule: Q04DX003 (ip), vehicle: saline with Tween-80) was 100 % of control, the T/C [7] was 103 % of control and the T/C (endpoint: mean survival time, dose: 100.0 mg/kg/injection, schedule: Q01DX001 (ip), vehicle: saline with Tween-80) was 100 % of control. For the same molecule, the T/C [4] was 104 % of control and 105 % of control, the T/C (endpoint: mean survival time, dose: 200.0 mg/kg/injection, schedule: Q01DX001 (ip), vehicle: saline with Tween-80) was 103 % of control and the T/C [5] was 101 % of control. The T/C (endpoint: mean survival time, dose: 400.0 mg/kg/injection, schedule: Q01DX001 (ip), vehicle: saline with Tween-80) was 91 % of control and the T/C [6] was 107 % of control.
`Nc1nc(N)c2nc(CNc3ccc(C(=O)NC(CC(=O)O)C(=O)O)cc3)cnc2n1` (configuration not stated) was tested, and the T/C (endpoint: mean survival time, dose: 6.25 mg/kg/injection, schedule: Q01DX001 (ip), vehicle: saline) was 101 % of control, the T/C (endpoint: mean survival time, dose: 12.5 mg/kg/injection, schedule: Q01DX001 (ip), vehicle: saline) was 98 % of control and the T/C (endpoint: mean survival time, dose: 25.0 mg/kg/injection, schedule: Q01DX001 (ip), vehicle: saline) was 107 % of control. The T/C [8] was 104 % of control, the T/C [9] was 104 % of control and the T/C [10] was 117 % of control.
For `CC(=O)c1ccc(O)cc1O`, the T/C [9] was 102 % of control and 98 % of control, the T/C [10] was 102 % of control and 98 % of control and the T/C [11] was 107 % of control and 104 % of control.
In the case of `[Cl][Pt+2][Cl].[NH-]C1CCCC1.[NH2-]`, the T/C (endpoint: mean survival time, dose: 0.39 mg/kg/injection, schedule: Q04DX003 (ip), vehicle: water) is reported as 106 % of control, the T/C (endpoint: mean survival time, dose: 0.78 mg/kg/injection, schedule: Q04DX003 (ip), vehicle: water) is reported as 122 % of control and the T/C (endpoint: mean survival time, dose: 3.12 mg/kg/injection, schedule: Q04DX003 (ip), vehicle: saline with Tween-80) is reported as 182 % of control. For the same molecule, the T/C (endpoint: mean survival time, dose: 3.13 mg/kg/injection, schedule: Q04DX003 (ip), vehicle: water) was 156 % of control.
In the case of `CCN(CCNc1ccc(C)c2sc3cc(Cl)ccc3c(=O)c12)CC(C)O` (configuration not stated), the T/C [8] is reported as 94 % of control, the T/C [9] is reported as 88 % of control and the T/C (endpoint: mean survival time, dose: 100.0 mg/kg/injection, schedule: Q04DX003 (ip), vehicle: saline) is reported as 94 % of control. The T/C [10] was 94 % of control, the T/C (endpoint: mean survival time, dose: 200.0 mg/kg/injection, schedule: Q04DX003 (ip), vehicle: saline) was 94 % of control and the T/C [11] was 96 % of control. The T/C (endpoint: mean survival time, dose: 400.0 mg/kg/injection, schedule: Q04DX003 (ip), vehicle: saline) was 102 % of control.
With `CCOc1ccc(OCC)c(NC(=O)Nc2ccccc2Cl)c1` the T/C (endpoint: mean survival time, dose: 25.0 mg/kg/injection, schedule: Q04DX002 (ip), vehicle: saline with Tween-80) was 94 % of control, the T/C (endpoint: mean survival time, dose: 50.0 mg/kg/injection, schedule: Q04DX002 (ip), vehicle: saline with Tween-80) was 94 % of control and the T/C (endpoint: mean survival time, dose: 100.0 mg/kg/injection, schedule: Q04DX002 (ip), vehicle: saline with Tween-80) was 90 % of control.
For `Cn1cnc([N+](=O)[O-])c1Sc1ncn[nH]1`, the T/C (endpoint: mean survival time, dose: 12.5 mg/kg/injection, schedule: Q01DX009 (ip), vehicle: saline) was 104 % of control, the T/C (endpoint: mean survival time, dose: 12.5 mg/kg/injection, schedule: Q01DX009 (ip), vehicle: suspension in saline) was 101 % of control and the T/C (endpoint: mean survival time, dose: 25.0 mg/kg/injection, schedule: Q01DX009 (ip), vehicle: saline) was 107 % of control. For the same molecule, the T/C (endpoint: mean survival time, dose: 25.0 mg/kg/injection, schedule: Q01DX009 (ip), vehicle: suspension in saline) was 104 % of control, the T/C [12] was 104 % of control and the T/C (endpoint: mean survival time, dose: 50.0 mg/kg/injection, schedule: Q01DX009 (ip), vehicle: suspension in saline) was 104 % of control. The T/C [13] was 102 % of control, the T/C (endpoint: mean survival time, dose: 100.0 mg/kg/injection, schedule: Q01DX009 (ip), vehicle: suspension in saline) was 106 % of control and the T/C [14] was 107 % of control. For the same molecule, the T/C (endpoint: mean survival time, dose: 400.0 mg/kg/injection, schedule: Q01DX009 (ip), vehicle: saline) was 104 % of control.
With `COC(=O)C1C(O)C(C)C(O)C(C)/C=C\C=C(C)C(=O)Nc2c(C)c(OC(C)=O)c3c(c2O)C(=O)C(C)=C2OCOC(=C23)C(C)=CC(C)(O)C(O)C(C)C1O` (configuration not stated) the T/C [7] was 95 % of control, the T/C [4] was 98 % of control and the T/C [5] was 92 % of control.
`O=C(O)CSc1c(Cl)c(=O)oc2ccc(Cl)cc12` was tested, and the T/C (endpoint: median survival time, dose: 6.25 mg/kg/injection, schedule: Q01DX009 (ip), vehicle: Klucel (hydroxypropylcellulose) (HPC)) was 101 % of control, the T/C (endpoint: median survival time, dose: 12.5 mg/kg/injection, schedule: Q01DX009 (ip), vehicle: Klucel (hydroxypropylcellulose) (HPC)) was 101 % of control and the T/C (endpoint: median survival time, dose: 25.0 mg/kg/injection, schedule: Q01DX009 (ip), vehicle: Klucel (hydroxypropylcellulose) (HPC)) was 97 % of control. The T/C (endpoint: median survival time, dose: 50.0 mg/kg/injection, schedule: Q01DX009 (ip), vehicle: Klucel (hydroxypropylcellulose) (HPC)) was 94 % of control, the T/C (endpoint: median survival time, dose: 100.0 mg/kg/injection, schedule: Q01DX009 (ip), vehicle: Klucel (hydroxypropylcellulose) (HPC)) was 108 % of control and the T/C (endpoint: median survival time, dose: 200.0 mg/kg/injection, schedule: Q01DX009 (ip), vehicle: Klucel (hydroxypropylcellulose) (HPC)) was 104 % of control.
In the case of `CC1=NNC2c3ccccc3-c3ccccc3N2C1` (configuration not stated), the T/C [9] is reported as 94 % of control, the T/C [10] is reported as 93 % of control and the T/C [11] is reported as 98 % of control.
In the case of `Fc1ccc2c(c1)C(Br)c1ccccc1-2` (configuration not stated), the T/C (endpoint: mean survival time, dose: 6.25 mg/kg/injection, schedule: Q01DX009 (ip), vehicle: saline with Tween-80) is reported as 96 % of control, the T/C (endpoint: mean survival time, dose: 12.5 mg/kg/injection, schedule: Q01DX009 (ip), vehicle: saline with Tween-80) is reported as 96 % of control and the T/C (endpoint: mean survival time, dose: 25.0 mg/kg/injection, schedule: Q01DX009 (ip), vehicle: saline with Tween-80) is reported as 105 % of control. The T/C [4] was 108 % of control, the T/C [5] was 88 % of control and the T/C [6] was 97 % of control.
In the case of `Nc1ncc(C2OC(CO)C(O)C2O)c(N)n1` (configuration not stated), the T/C (endpoint: mean survival time, dose: 25.0 mg/kg/injection, schedule: Q01DX009 (ip), vehicle: water) is reported as 91 % of control, the T/C (endpoint: mean survival time, dose: 50.0 mg/kg/injection, schedule: Q01DX009 (ip), vehicle: water) is reported as 100 % of control and the T/C (endpoint: mean survival time, dose: 100.0 mg/kg/injection, schedule: Q01DX009 (ip), vehicle: water) is reported as 95 % of control. For the same molecule, the T/C (endpoint: mean survival time, dose: 200.0 mg/kg/injection, schedule: Q01DX009 (ip), vehicle: water) was 88 % of control and the T/C (endpoint: mean survival time, dose: 400.0 mg/kg/injection, schedule: Q01DX009 (ip), vehicle: water) was 91 % of control.
With `c1ccc2c(c1)ccn2CCCCn1ccc2ccccc21` the T/C [1] was 101 % of control, the T/C [2] was 101 % of control and the T/C [3] was 101 % of control.
For `N#C/C(=C/C=C/c1ccccc1)c1ccc([N+](=O)[O-])cc1`, the T/C (endpoint: mean survival time, dose: 100.0 mg/kg/injection, schedule: Q04DX002 (ip), vehicle: other) was 111 % of control, the T/C (endpoint: mean survival time, dose: 200.0 mg/kg/injection, schedule: Q04DX002 (ip), vehicle: other) was 100 % of control and the T/C (endpoint: mean survival time, dose: 400.0 mg/kg/injection, schedule: Q04DX002 (ip), vehicle: other) was 96 % of control.
In the case of `CCOC(=O)C(C)S(=O)(=O)O` (configuration not stated), the T/C (endpoint: mean survival time, dose: 100.0 mg/kg/injection, schedule: Q04DX002 (ip), vehicle: saline) is reported as 91 % of control, the T/C (endpoint: mean survival time, dose: 200.0 mg/kg/injection, schedule: Q04DX002 (ip), vehicle: saline) is reported as 100 % of control and the T/C (endpoint: mean survival time, dose: 400.0 mg/kg/injection, schedule: Q04DX002 (ip), vehicle: saline) is reported as 100 % of control.
With `C=CN1C(=O)NC(C)(CC(C)C)C1=O` (configuration not stated) the T/C [4] was 94 % of control, the T/C [5] was 92 % of control and the T/C [6] was 102 % of control.
In the case of `CC(=O)c1ccc[n+](Cc2c(Cl)cccc2Cl)c1`, the T/C (endpoint: mean survival time, dose: 12.5 mg/kg/injection, schedule: Q04DX003 (ip), vehicle: saline) is reported as 107 % of control, the T/C (endpoint: mean survival time, dose: 25.0 mg/kg/injection, schedule: Q04DX003 (ip), vehicle: saline) is reported as 98 % of control and the T/C (endpoint: mean survival time, dose: 50.0 mg/kg/injection, schedule: Q04DX003 (ip), vehicle: saline) is reported as 96 % of control.
For `O=C1CCC(=O)ON=c2ccc(cc2)=NO1`, the T/C [12] was 98 % of control, the T/C [13] was 102 % of control and the T/C [14] was 90 % of control.
`Nc1ccn(C2OC(CO)C3[O][Sn]([c]4ccccc4)([c]4ccccc4)[O]C32)c(=O)n1` (configuration not stated) was tested, and the T/C (endpoint: mean survival time, dose: 1.56 mg/kg/injection, schedule: Q01DX005 (ip), vehicle: other) was 100 % of control, the T/C (endpoint: mean survival time, dose: 3.13 mg/kg/injection, schedule: Q01DX005 (ip), vehicle: other) was 94 % of control and the T/C (endpoint: mean survival time, dose: 6.25 mg/kg/injection, schedule: Q01DX005 (ip), vehicle: other) was 100 % of control. The T/C (endpoint: mean survival time, dose: 12.5 mg/kg/injection, schedule: Q01DX005 (ip), vehicle: other) was 94 % of control and 104 % of control.
